25 molecules from patent US9187472B2 (AbbVie Inc., priority 2012, dated 2015) can be followed below.

Structures are written as SMILES.

The target in test [1] is NAMPT (human, recombinant, C-terminally His-tagged) (Homo sapiens, UniProt P43490). Put plainly: Time-Resolved Fluorescence Resonance Energy Transfer (TR-FRET) Binding Assay of NAMPT. The note with it: without substrates; 6.8 nM NAMPT, 200 nM probe, 3 hours equilibration. In short, it runs like this:
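Read-out is the time-resolved FRET ratio Em520/Em495 (excitation 337 nm) between a terbium anti-His antibody (1 nM) on the enzyme and an Oregon Green 488-labelled nicotinamide-competitive inhibitor probe (200 nM). Enzyme was 6.8 nM, DMSO 2%, pH 7.5 HEPES buffer; 3 h room-temperature equilibration preceded reading.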

In a further test the test system is PC3 cells. Put plainly: NAMPT Cell Proliferation Assay. The class given is cell-based. The note with it: Homo sapiens, PC-3, 120 h, 5 days incubation, cell viability by Cell Titer Glo. In short, it runs like this:
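Seed PC3 at 500 cells/well (RPMI, 10% HI-FBS), attach overnight; add compound, 10-fold series 10 μM → 1×10^−5 μM; incubate 5 d, 37° C/5% CO2; luminescent viability readout; fit % inhibition sigmoidally for IC50.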
On the technique in general: In ATP-based viability assays light output follows the ATP content of the culture.

In the next test the target is NAMPT (Homo sapiens, UniProt P43490). Put plainly: TR-FRET Binding Assay of NAMPT with PRPP. The note with it: with 200 μM PRPP and 2.5 mM ATP; 2 nM NAMPT, 2 nM probe, 16 hours equilibration. In short, it runs like this: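 NAMPT 2 nM + probe 2 nM + Tb-anti-His Ab 1 nM; PRPP 200 μM, ATP 2.5 mM, DMSO 2%; 16 h equilibration before TR-FRET read.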
NAMPT, sequence (P43490 whole entry): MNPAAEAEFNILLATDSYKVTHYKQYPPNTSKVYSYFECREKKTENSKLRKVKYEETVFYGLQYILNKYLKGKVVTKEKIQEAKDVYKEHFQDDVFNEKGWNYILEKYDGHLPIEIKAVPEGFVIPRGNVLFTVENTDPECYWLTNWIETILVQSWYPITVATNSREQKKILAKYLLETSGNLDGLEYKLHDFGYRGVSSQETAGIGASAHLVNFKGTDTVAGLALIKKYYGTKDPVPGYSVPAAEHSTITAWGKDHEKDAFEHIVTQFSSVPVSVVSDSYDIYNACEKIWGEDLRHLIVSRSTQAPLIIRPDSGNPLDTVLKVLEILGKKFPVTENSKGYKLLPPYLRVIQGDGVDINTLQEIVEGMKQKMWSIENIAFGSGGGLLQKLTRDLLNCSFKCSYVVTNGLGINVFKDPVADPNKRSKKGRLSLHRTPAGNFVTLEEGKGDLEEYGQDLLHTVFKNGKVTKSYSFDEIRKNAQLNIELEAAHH
On the technique in general: TR-FRET usually uses a lanthanide donor and a delayed reading to cut background.

NAMPT (human, recombinant, C-terminally His-tagged), sequence (P43490 whole entry): as above

On to `CC(C)(O)C(=O)N1CC(Oc2ccc(NC(=O)NCc3ccn4ccnc4c3)cc2)C1` [Example 430, 1-(4-{[1-(2-hydroxy-2-methylpropanoyl)azetidin-3-yl]oxy}phenyl)-3-(imidazo[1,2-a]pyridin-7-ylmethyl)urea], for which the IC50 in test [1] amounted to 292 nM; in the test with PC3 cells, 88.6 nM; at NAMPT, 0.264 nM.

`O=C(NCc1ccn2ccnc2c1)c1ccc(C2CCN(C(=O)[C@@H]3CCCO3)CC2)cc1` [Example 311, N-(imidazo[1,2-a]pyridin-7-ylmethyl)-4-{1-[(2S)-tetrahydrofuran-2-ylcarbonyl]piperidin-4-yl}benzamide]: the values for the IC50 (in test [1]; in the test with PC3 cells; on NAMPT) were 289 nM, 19.1 nM and 0.274 nM, respectively.

For `O=C(NCc1ccn2ccnc2c1)Nc1ccc(C2CCN(C(=O)C3CCC(F)(F)CC3)CC2)cc1` [Example 715, 1-(4-{1-[(4,4-difluorocyclohexyl)carbonyl]piperidin-4-yl}phenyl)-3-(imidazo[1,2-a]pyridin-7-ylmethyl)urea], the IC50 in test [1] was 65.9 nM; with PC3 cells, 3.49 nM; on NAMPT it was 0.771 nM.

Consider `CC(C)CCNc1ncc(C(=O)NCc2ccc3nccn3c2)s1` [Example 87, N-(imidazo[1,2-a]pyridin-6-ylmethyl)-2-[(3-methylbutyl)amino]-1,3-thiazole-5-carboxamide], for which the IC50 in test [1] amounted to 2050 nM; in the test on PC3 cells it was 6580 nM; at NAMPT, 1.35 nM.

Regarding `CC(C)(C)CC(=O)N1CCC(O)(c2ccc(C(=O)NCc3ccn4ccnc4c3)s2)CC1` [Example 555, 5-[1-(3,3-dimethylbutanoyl)-4-hydroxypiperidin-4-yl]-N-(imidazo[1,2-a]pyridin-7-ylmethyl)thiophene-2-carboxamide], the IC50 came out at 427 nM in test [1], 33.2 nM with PC3 cells and 0.749 nM on NAMPT.

For the molecule `O=C(NCc1ccc2nccn2c1)c1cnc(N(C[C@@H]2CCCO2)C(=O)C2CCOC2)s1` (stereo partly drawn) [Example 149, N-(imidazo[1,2-a]pyridin-6-ylmethyl)-2-{(tetrahydrofuran-3-ylcarbonyl)[(2S)-tetrahydrofuran-2-ylmethyl]amino}-1,3-thiazole-5-carboxamide], the results for the IC50 (in test [1]; in the test on PC3 cells; at NAMPT) were over 10000 nM, 26.6 nM and 4.86 nM, respectively.

Consider `O=C(NCc1ccn2ccnc2c1)Nc1ccc(C2CCN(C(=O)CC3CC3)C2)cc1` (stereo not drawn) [Example 382], for which the values for the IC50 (in test [1]; in the test with PC3 cells; at NAMPT) were 119 nM, 83.8 nM and 0.204 nM, respectively.

For the molecule `O=C(NCc1ccn2ccnc2c1)c1ccc(-c2cnn(C[C@H]3CCCO3)c2)o1` [Example 743, N-(imidazo[1,2-a]pyridin-7-ylmethyl)-5-{1-[(2R)-tetrahydrofuran-2-ylmethyl]-1H-pyrazol-4-yl}furan-2-carboxamide], the IC50 in test [1] was 63.3 nM; in the test on PC3 cells, 6.81 nM; at NAMPT, 0.691 nM.

With `O=C(CC1CCCC1)Nc1ccc(C(=O)NCc2ccc3nccn3c2)cc1` [Example 52, 4-[(cyclopentylacetyl)amino]-N-(imidazo[1,2-a]pyridin-6-ylmethyl)benzamide], the IC50 amounted to 18.6 nM in test [1], 4.07 nM in the test on PC3 cells and 5.79 nM at NAMPT.

Regarding `CC(C)Cn1cc(-c2ccc(C(=O)NCc3ccn4ccnc4c3)o2)cn1` [Example 740, N-(imidazo[1,2-a]pyridin-7-ylmethyl)-5-[1-(2-methylpropyl)-1H-pyrazol-4-yl]furan-2-carboxamide], the IC50 was found to be 70.1 nM in test [1], 8.13 nM with PC3 cells and 0.403 nM on NAMPT.

With `O=C(NCc1ccn2ccnc2c1)Nc1ccc(OC2CCN(C(=O)CC3CC3)CC2)cc1` [Example 444, 1-(4-{[1-(cyclopropylacetyl)piperidin-4-yl]oxy}phenyl)-3-(imidazo[1,2-a]pyridin-7-ylmethyl)urea], the IC50 is 156 nM in test [1], 69.9 nM in the test on PC3 cells and 0.244 nM at NAMPT.

For `CC(C)(O)C(=O)N1CCC(c2ccc(C(=O)NCc3ccn4ccnc4c3)cc2)CC1` [Example 230, 4-[1-(2-hydroxy-2-methylpropanoyl)piperidin-4-yl]-N-(imidazo[1,2-a]pyridin-7-ylmethyl)benzamide], the results for the IC50 (in test [1]; in the test with PC3 cells; at NAMPT) were 294 nM, 7.2 nM and 0.169 nM, respectively.

With `O=C(NCc1ccn2ccnc2c1)Nc1ccc(OC2CN(C(=O)C3CCOCC3)C2)cc1` [Example 433, 1-(imidazo[1,2-a]pyridin-7-ylmethyl)-3-(4-{[1-(tetrahydro-2H-pyran-4-ylcarbonyl)azetidin-3-yl]oxy}phenyl)urea], the IC50 is 200 nM in test [1], 64.4 nM in the test on PC3 cells and 0.248 nM on NAMPT.

Take `O=C(CCC1CCCC1)Nc1ccc(NC(=O)NCc2ccc3nccn3c2)cc1` [Example 275, 3-cyclopentyl-N-(4-{[(imidazo[1,2-a]pyridin-6-ylmethyl)carbamoyl]amino}phenyl)propanamide]: the figures for the 50% inhibitory concentration (IC50) (in test [1]; in the test on PC3 cells; on NAMPT) were 12.3 nM, 23.9 nM and 0.43 nM, respectively.

Consider `Cc1nc(CC(=O)N(CC2CCCO2)c2ncc(C(=O)NCc3ccc4nccn4c3)s2)cs1` (stereo not drawn) [Example 124, N-(imidazo[1,2-a]pyridin-6-ylmethyl)-2-{[(2-methyl-1,3-thiazol-4-yl)acetyl](tetrahydrofuran-2-ylmethyl)amino}-1,3-thiazole-5-carboxamide], for which the IC50 was 1100 nM in test [1], 20.8 nM in the test on PC3 cells and 2.12 nM on NAMPT.

Consider `CC1CC1C(=O)N1CC(c2ccc(C(=O)NCc3ccn4ccnc4c3)cc2)C1` (stereo not drawn) [Example 628, N-(imidazo[1,2-a]pyridin-7-ylmethyl)-4-{1-[(2-methylcyclopropyl)carbonyl]azetidin-3-yl}benzamide], for which the IC50 in test [1] was 706 nM; in the test on PC3 cells, 43.6 nM; on NAMPT it was 0.978 nM.

As for `O=C(NCc1ccn2ccnc2c1)c1ccc(O[C@H]2CCN(C(=O)CC3CC3)C2)cc1` [Example 347, 4-{[(3S)-1-(cyclopropylacetyl)pyrrolidin-3-yl]oxy}-N-(imidazo[1,2-a]pyridin-7-ylmethyl)benzamide], the figures for the IC50 (in test [1]; in the test on PC3 cells; on NAMPT) were 4730 nM, 8080 nM and 0.667 nM, respectively.

In the case of `O=C(NCc1ccn2ccnc2c1)c1ccc(C2CCN(C(=O)c3cccc(OC(F)(F)F)c3)CC2)cc1` [Example 703, N-(imidazo[1,2-a]pyridin-7-ylmethyl)-4-{1-[3-(trifluoromethoxy)benzoyl]piperidin-4-yl}benzamide], the IC50 in test [1] turned out to be 559 nM; in the test with PC3 cells it was 90.3 nM; on NAMPT, 0.824 nM.

In the case of `O=C(NCc1ccn2ccnc2c1)Nc1ccc(C2CCN(C(=O)[C@@H]3CCOC3)CC2)cc1` [Example 287, 1-(imidazo[1,2-a]pyridin-7-ylmethyl)-3-(4-{1-[(3R)-tetrahydrofuran-3-ylcarbonyl]piperidin-4-yl}phenyl)urea], the IC50 in test [1] came to 67.3 nM; with PC3 cells, 24.1 nM; at NAMPT it was 0.351 nM.

As for `CC1(Cn2cc(-c3ccc(C(=O)NCc4ccn5ccnc5c4)s3)cn2)CCCCO1` (stereo not drawn) [Example 465, N-(imidazo[1,2-a]pyridin-7-ylmethyl)-5-{1-[(2-methyltetrahydro-2H-pyran-2-yl)methyl]-1H-pyrazol-4-yl}thiophene-2-carboxamide], the IC50 is 13.8 nM in test [1], 0.319 nM in the test with PC3 cells and 0.169 nM at NAMPT.

As to `O=C(NCc1ccn2ccnc2c1)c1ccc(C2CCN(C(=O)CC3CCOCC3)CC2)cc1` [Example 236, N-(imidazo[1,2-a]pyridin-7-ylmethyl)-4-[1-(tetrahydro-2H-pyran-4-ylacetyl)piperidin-4-yl]benzamide], the figures for the IC50 (in test [1]; with PC3 cells; at NAMPT) were 604 nM, 13.8 nM and 0.243 nM, respectively.

`Cc1cc(CC(=O)N(CC2CCCO2)c2ncc(C(=O)NCc3ccc4nccn4c3)s2)nn1C` (stereo not drawn) [Example 190, 2-{[(1,5-dimethyl-1H-pyrazol-3-yl)acetyl](tetrahydrofuran-2-ylmethyl)amino}-N-(imidazo[1,2-a]pyridin-6-ylmethyl)-1,3-thiazole-5-carboxamide]: the IC50 in test [1] came out at 400 nM; with PC3 cells it was 14.9 nM; on NAMPT, 4.57 nM.

As to `CC(C)OCC(=O)Nc1ccc(C(=O)NCc2ccn3ccnc3c2)cc1` [Example 211, N-(imidazo[1,2-a]pyridin-7-ylmethyl)-4-{[(propan-2-yloxy)acetyl]amino}benzamide], the IC50 in test [1] came to 1660 nM; in the test with PC3 cells it was 950 nM; at NAMPT it was 0.453 nM.

In the case of `CC1(Cn2cc(-c3ccc(C(=O)NCc4ccn5ccnc5c4)s3)cn2)COC1` [Example 254, N-(imidazo[1,2-a]pyridin-7-ylmethyl)-5-{1-[(3-methyloxetan-3-yl)methyl]-1H-pyrazol-4-yl}thiophene-2-carboxamide], the IC50 in test [1] worked out at 31.3 nM; with PC3 cells, 0.938 nM; at NAMPT it was 0.306 nM.

As for `O=C(NCc1ccn2ccnc2c1)c1ccc(OC2CCN(C(=O)[C@H]3CCCO3)CC2)cc1` [Example 418, N-(imidazo[1,2-a]pyridin-7-ylmethyl)-4-({1-[(2R)-tetrahydrofuran-2-ylcarbonyl]piperidin-4-yl}oxy)benzamide], the IC50 worked out at 4750 nM in test [1], 866 nM with PC3 cells and 0.233 nM at NAMPT.

The IC50 is the concentration needed to halve the response being measured.
